Test results reported in patent US9636317B2, “Compositions and methods of use of phorbol esters” (priority 2007, dated 2017).

Key:
primary AML = details: pharmacological interruption of ERK signaling; cited from earlier work
primary AML cells = experiment: Primary AML cultures ex vivo: cell viability, apoptosis assays and Western analysis of ERK; format: cell-based, human; details: primary AML samples
Source text: In addition to protein kinase C and ERK activation, TPA is a known inducer of NF-κB, a pro-survival transcription factor often constitutively active in AML blasts and leukemic stem cells.

[1] = most polar organic solvents and water; cited from earlier work
HIV = details: cited from earlier work

COc1cccc(-c2cc(=O)c3ccccc3o2)c1N [PD98059]
primary AML survival (primary AML): decreased primary AML survival

N#CC(=C(/N)Sc1ccccc1N)/C(C#N)=C(\N)Sc1ccccc1N [U0126]
primary AML survival (primary AML): decreased primary AML survival

O=C(NOCC1CC1)c1ccc(F)c(F)c1Nc1ccc(I)cc1Cl [PD 184352]
primary AML survival (primary AML): decreased primary AML survival

C[C@@H]1C[C@H]2[C@@H]3CCC4=CC(=O)C=C[C@]4(C)[C@@]3(F)[C@@H](O)C[C@]2(C)[C@@]1(O)C(=O)CO [dexamethasone, reference compound]
effect on TPA cytotoxicity (primary AML cells): enhance TPA cytotoxicity

CC1=C[C@H]2[C@@]3(O)[C@H](C)[C@@H](O)[C@]4(O)[C@H]([C@@H]3C=C(CO)C[C@]2(O)C1=O)C4(C)C [Phorbol]
solubility [1]: well soluble in most polar organic solvents and in water

CC(=O)O[C@@]12C[C@@H](C)[C@@]3(O)[C@@H](C=C(CO)C[C@]4(O)C(=O)C(C)=C[C@@H]34)[C@@H]1C2(C)C [Prostratin, 12-deoxyphorbol 13-acetate]
HIV induced cell killing and viral replication (HIV): some effectiveness for inhibiting HIV induced cell killing and viral replication
effect on chronically-infected cell lines (HIV): little or no effect on chronically-infected cell lines
viral expression in latently-infected cell lines (HIV): activated viral expression in latently-infected cell lines
